{"source": "ChEMBL document CHEMBL1153023", "about": "“Lathyrane diterpenes from Euphorbia lathyris as modulators of multidrug resistance and their crystal structures” (Bioorg Med Chem, 2009)", "key": {"[1]": {"test_system": "MCF7/ADM", "assay": "Reversal of p-gp-mediated multidrug-resistance in human MCF7/ADM cells assessed as enhancement intensity at 10 ug/mL after 48 hrs by SRB assay relative to adriamycin", "type": "cell-based"}, "[2]": {"assay": "Reversal of p-gp-mediated multidrug-resistance in human MCF7/ADM cells after 48 hrs by SRB assay", "type": "cell-based"}, "[3]": {"test_system": "MCF/ADR", "assay": "Reversal of P-gp-mediated multidrug resistance in human MCF/ADR cells assessed as reversal fold after 48 hrs by SRB assay relative to control", "type": "cell-based"}, "[4]": {"test_system": "MCF7", "assay": "Cytotoxicity against human MCF7 cells after 48 hrs by SRB assay", "type": "cell-based", "conditions": "mcf7, 48 h; call rule not given here"}, "[5]": {"assay": "Octanol-water partition coefficient, log P of the compound", "type": "physicochemical"}}}
{"compound": "COc1ccc(CCN(C)CCCC(C#N)(c2ccc(OC)c(OC)c2)C(C)C)cc1OC", "note": "(configuration not stated) [VERAPAMIL]", "values": [{"measurement": "Activity", "setting": "[1]", "result": 19, "unit": "%"}, {"measurement": "IC50", "setting": "[2]", "result": 367, "unit": "µg/mL"}, {"measurement": "Ratio IC50", "setting": "[3]", "result": 2.95}]}
{"compound": "CC(=O)OC/C1=C/[C@H]2[C@@H](OC(=O)/C=C/c3ccccc3)[C@@H](C)C[C@]2(OC(C)=O)C(=O)/C(C)=C/[C@@H]2[C@H](CC1)C2(C)C", "note": "(relative stereo)", "values": [{"measurement": "Activity", "setting": "[4]", "result": "Not Active"}, {"measurement": "Activity", "setting": "[1]", "result": 54, "unit": "%"}, {"measurement": "IC50", "setting": "[2]", "result": 105, "unit": "µg/mL"}, {"measurement": "Ratio IC50", "setting": "[3]", "result": 10.3}, {"measurement": "logP", "setting": "[5]", "result": 5.8}]}
{"compound": "CC(=O)OC/C1=C\\C[C@H]2[C@@H](/C=C(\\C)C(=O)[C@@]3(OC(C)=O)C[C@H](C)[C@H](OC(=O)c4ccccc4)[C@@H]3[C@H]1OC(C)=O)C2(C)C", "note": "(relative stereo)", "values": [{"measurement": "Activity", "setting": "[4]", "result": "Not Active"}, {"measurement": "Activity", "setting": "[1]", "result": 15, "unit": "%"}, {"measurement": "IC50", "setting": "[2]", "result": 248, "unit": "µg/mL"}, {"measurement": "Ratio IC50", "setting": "[3]", "result": 4.36}, {"measurement": "logP", "setting": "[5]", "result": 6.1}]}
{"compound": "CC(=O)O[C@@H]1[C@H]2[C@@H](OC(=O)Cc3ccccc3)[C@@H](C)C[C@]2(OC(C)=O)C(=O)/C(C)=C/[C@@H]2[C@H](CC[C@]13CO3)C2(C)C", "values": [{"measurement": "Activity", "setting": "[4]", "result": "Not Active"}, {"measurement": "Activity", "setting": "[1]", "result": 22, "unit": "%"}, {"measurement": "IC50", "setting": "[2]", "result": 246, "unit": "µg/mL"}, {"measurement": "Ratio IC50", "setting": "[3]", "result": 4.4}, {"measurement": "logP", "setting": "[5]", "result": 5.6}]}
{"compound": "C=C1[C@@H](OC(=O)c2ccccc2)C[C@H]2[C@@H](/C=C(\\C)C(=O)[C@@]3(OC(C)=O)C[C@H](C)[C@H](OC(=O)c4ccccc4)[C@@H]3[C@H]1OC(C)=O)C2(C)C", "values": [{"measurement": "Activity", "setting": "[4]", "result": "Not Active"}, {"measurement": "Activity", "setting": "[1]", "result": 34, "unit": "%"}, {"measurement": "IC50", "setting": "[2]", "result": 84.3, "unit": "µg/mL"}, {"measurement": "Ratio IC50", "setting": "[3]", "result": 12.8}, {"measurement": "logP", "setting": "[5]", "result": 7.9}]}
{"compound": "C=C1CC[C@H]2[C@@H](/C=C(\\C)C(=O)[C@@]3(OC(C)=O)C[C@H](C)[C@H](OC(=O)c4ccccc4)[C@@H]3[C@H]1OC(C)=O)C2(C)C", "values": [{"measurement": "Activity", "setting": "[1]", "result": 25, "unit": "%"}, {"measurement": "IC50", "setting": "[2]", "result": 165, "unit": "µg/mL"}, {"measurement": "Ratio IC50", "setting": "[3]", "result": 6.57}, {"measurement": "logP", "setting": "[5]", "result": 6.4}]}
